# Experimental data reported in patent publication US11613552B2, “Pharmaceutical agents, compositions, and methods relating thereto” (Alltech, Inc., priority 2017, dated 2023).
# Tests used:
# Insrβ/Pdk1/Akt/AS160 = assay: Western blot of Insrβ/Akt/AS160 phosphorylation in differentiated C2C12 cells; format: cell-based, mouse; conditions: for pInsrβ levels: 200 nM insulin or 600 ppb Compound #43, prolonged treatment 60 minutes
# Experimental: To differentiate the C2C12 cells, equal number of these myoblast cells were firstly seeded on 12-well plates (60,000 cells/well) and cultured in 10% FBS DMEM media at 37° C. for 5 days. These cells were replenished daily with fresh 10% FBS DMEM media. At day 5 after the culture, C2C12 cells were differentiated using 0.5% horse serum (Sigma)-containing DMEM media (differentiation media) for 7 days with daily replacement of fresh differentiation media, similar to previous described (Misu et al, Cell Metabolism 12, 483-495, 2010). At day 7 after the differentiation, differentiated C2C12 cells were rinsed with PBS twice and incubated in serum-free DMEM media overnight. Then these serum-starved cells were treated without (basal) or with insulin (200 nM), Compound #43 (600 ppb), or both insulin and Compound #43 in serum-free DMEM media at 37° C. for 5 and 60 minutes.
# After the above treatments, cultured HepG2 cells or differentiated C2C12 cells were rinsed twice with ice-cold PBS and lysed in ice-cold RIPA buffer containing complete proteinase and phosphatase inhibitors (Thermo-Fisher Scientific, Waltham, Mass.) on ice for 30 min. Cell lysates were collected using a cell scraper and transfer pipette, and then centrifuged at 12000×g for 30 min at 4° C. to remove the DNA pellet and obtain the protein extract. Protein levels in the supernatant of these cell lysates were determined using the Pierce Micro-BCA protein assay kit (Thermo Scientific-Piece Biotechnology, Rockford, Ill.) according to the manufacturer's protocol.
# One hundred micrograms of skeletal muscle or liver tissue proteins, five micrograms of HepG2 cell protein extracts, or eight micrograms of differentiated C2C12 cell protein extracts were subjected to SDS-PAGE gel separation and then transferred to PVDF membranes, as described previously (Reddy et al. 2008 Science). Membranes were blocked in a phosphate-buffered saline (PBS) containing 5% (w/v) of bovine serum albumin (Sigma, St. Louis, Mo.) and incubated with specific primary antibodies followed by the incubation with HRP-conjugated anti-mouse or anti-rabbit secondary antibodies (1:5000 dilution, Cell Signaling Inc.). All primary antibodies were purchased from Cell Signaling Inc, except the antibodies against β-tubulin (LI-COR bioscience). Positive signals on the membrane blots were detected using the Amersham's enhanced chemiluminescence Western Blotting Prime Detection reagents (GE Healthcare Lifescience, Pittsburgh, Pa.). Images of these luminescence signals on the membrane blots were captured using the LI-COR Odyssey Fc Image system (Lincoln, Nebr.). The same membrane blot was stripped and re-blotted with another antibody as described in the GE WB ECL-prime-detection protocol (GE healthcare Lifescience, Pittsburgh, Pa.). Protein band densities in the Western blots were determined using the NIH ImageJ software and then normalized by β-tubulin or ACTB protein level in each sample. Data are presented as mean±SEM of 3-5 samples per group.
# G6PC [1] = assay: QRT-PCR of G6PC expression in HepG2 cells; format: cell-based, human; conditions: 100 nM insulin or 600 ppb Compound #43, serum-free, 40 hr (FIG. 10B)
# Experimental: For RNA analysis of basal G6pc expression (without the presence of diabetic stimuli: 8-CPT/Dex), amplified AML-12 and HepG2 cells were cultured on 24-well plates (0.5-2×10^5 cells/well) overnight in 10% FBS ITS- and Dex-free DMEM/F12 media and 10% FBS EMEM media, respectively. These cells were rinsed twice with PBS to remove residual sera. Then, the PBS-washed HepG2 cells were treated without or with insulin or Compound #43 in serum-free EMEM media for 40 hr. In some experiments, the PBS-washed AML-12 cells were incubated without or with Compound #43 or other selenium compounds in serum-free DMEM/F12 media for 24 hours. In other experiments, amplified AML-12 cells were pretreated without or with Compound #43 (150 or 300 ppb) in 10% FBS but ITS/Dex-free DMEM/F12 media for 24 hr. After 24 hr treatment, AML-12 cells were washed twice with PBS (to remove any residual serum in the culture) and then treated with insulin, Compound #43 or both, in the serum-free DMEM/Dex media for 6 hr.
# Total RNA from saline- or selenium compound-treated Lepr^db/db mice was isolated using a Qiagen RNAeasy RNA isolation kit according to the Manufacturer's protocol. Total RNA from cultured cells was isolated using Trizol (Invitrogen) according to the manufacturer's protocol, and then incubated with DNase I to remove any potential contaminating genomic DNA. […]
# G6pc [2] = assay: QRT-PCR of 8-CPT/Dex-induced G6pc expression in AML-12 cells; format: cell-based, mouse; conditions: for G6pc mRNA level normalized by non-8-CPT/Dex-treated group: with 8-CPT/Dex (8-CPT/Dex alone 41.5)
# Experimental: For RNA analysis of the diabetic stimuli-induced G6pc expression, the AML-12 cells were pretreated without or with Compound #43 (150 or 300 ppb) in 10% FBS but ITS/Dex-free DMEM/F12 media for 24 hr. Then these cells were washed twice with PBS remove any residual sera, and incubated with Compound #43 (150 or 300 ppb) in the presence or absence of insulin (10 or 100 nM), or 0.1 mM 8-CPT (Sigma) and 0.5 μM Dex in serum-free plain DMEM/F12 media for another 6 hours.
# Total RNA from saline- or selenium compound-treated Lepr^db/db mice was isolated using a Qiagen RNAeasy RNA isolation kit according to the Manufacturer's protocol. Total RNA from cultured cells was isolated using Trizol (Invitrogen) according to the manufacturer's protocol, and then incubated with DNase I to remove any potential contaminating genomic DNA. RNA samples were subjected to real-time PCR (QRT-PCR) analysis using Applied-Bioscience's RT kit and predesigned Taqman probes (Invitrogen), as described previously (Lan et al EMBO J 2003). Data were normalized by Actin B (Actb) mRNA levels in each sample, and are presented as mean±SEM of 3-5 samples.
# [3] = target: T1, native insulin receptor (Insr) (Rattus norvegicus, UniProt P15127); assay: In vitro cell-free phosphorylation of native insulin receptor; format: biochemical
# T1 construct: native insulin receptor proteins, containing both alpha and beta subunits; purchased Sigma I9266; host or cells: purified from rat liver tissue
# Experimental: In vitro phosphorylation of Insr was performed according to Sigma's protocol with the following modifications. In brief, 10 μl of native insulin receptor solution containing 0.8 μl of original native INSR stock solution (Sigma, Catalog #I9266; diluted in enzyme dilution buffer containing 50 mM HEPES, pH 7.6, 150 mM NaCl and 0.1% Triton X-100) were incubated with equal volume of solutions containing insulin (Sigma), DMSO (Compound #43 solvent), Compound #43 or Compound #68 (diluted in 50 mM HEPES, pH 7.6 and 100 μg/ml bovine serum albumin) on ice for 30 min. Then 20 μl of 2× kinase buffer containing 0.2 mM ATP, 50 mM HEPES, pH 7.6, 50 mM MgCl2 and 4 mM MnCl2 were added to the above reactions, mixed and incubated on ice for 45 minutes.
# Five microliters of the above reactions were immediately subjected to Western blot analysis using specific antibodies against phosphorylated tyrosine residues at 1146, 1150 and 1151 of Insrβ proteins (Cell Signaling Inc.). Protein band density was determined using the NIH Image J software.
# [4] = 200 nM insulin or 600 ppb Compound #43, 5 minutes
# [5] = 200 nM insulin or 600 ppb Compound #43, 60 minutes
# T1 sequence (P15127 764-1383 limits assumed): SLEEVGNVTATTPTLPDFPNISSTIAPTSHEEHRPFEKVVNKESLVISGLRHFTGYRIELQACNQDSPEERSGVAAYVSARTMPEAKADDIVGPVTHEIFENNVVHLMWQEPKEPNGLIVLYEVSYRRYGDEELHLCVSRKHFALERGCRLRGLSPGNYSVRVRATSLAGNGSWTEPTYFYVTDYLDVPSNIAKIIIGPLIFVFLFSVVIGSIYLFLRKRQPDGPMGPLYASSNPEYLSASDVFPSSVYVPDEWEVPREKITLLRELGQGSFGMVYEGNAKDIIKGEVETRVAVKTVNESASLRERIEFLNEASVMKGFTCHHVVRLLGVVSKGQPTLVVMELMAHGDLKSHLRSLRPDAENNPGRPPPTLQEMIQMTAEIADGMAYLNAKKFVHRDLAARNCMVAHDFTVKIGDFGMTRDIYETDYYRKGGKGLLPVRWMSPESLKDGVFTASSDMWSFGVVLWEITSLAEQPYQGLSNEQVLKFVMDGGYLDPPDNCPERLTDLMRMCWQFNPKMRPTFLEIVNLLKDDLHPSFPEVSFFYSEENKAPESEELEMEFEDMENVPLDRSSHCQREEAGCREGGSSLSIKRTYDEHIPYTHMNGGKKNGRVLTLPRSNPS
# T1 sequence (P15127 27-759 partner limits assumed): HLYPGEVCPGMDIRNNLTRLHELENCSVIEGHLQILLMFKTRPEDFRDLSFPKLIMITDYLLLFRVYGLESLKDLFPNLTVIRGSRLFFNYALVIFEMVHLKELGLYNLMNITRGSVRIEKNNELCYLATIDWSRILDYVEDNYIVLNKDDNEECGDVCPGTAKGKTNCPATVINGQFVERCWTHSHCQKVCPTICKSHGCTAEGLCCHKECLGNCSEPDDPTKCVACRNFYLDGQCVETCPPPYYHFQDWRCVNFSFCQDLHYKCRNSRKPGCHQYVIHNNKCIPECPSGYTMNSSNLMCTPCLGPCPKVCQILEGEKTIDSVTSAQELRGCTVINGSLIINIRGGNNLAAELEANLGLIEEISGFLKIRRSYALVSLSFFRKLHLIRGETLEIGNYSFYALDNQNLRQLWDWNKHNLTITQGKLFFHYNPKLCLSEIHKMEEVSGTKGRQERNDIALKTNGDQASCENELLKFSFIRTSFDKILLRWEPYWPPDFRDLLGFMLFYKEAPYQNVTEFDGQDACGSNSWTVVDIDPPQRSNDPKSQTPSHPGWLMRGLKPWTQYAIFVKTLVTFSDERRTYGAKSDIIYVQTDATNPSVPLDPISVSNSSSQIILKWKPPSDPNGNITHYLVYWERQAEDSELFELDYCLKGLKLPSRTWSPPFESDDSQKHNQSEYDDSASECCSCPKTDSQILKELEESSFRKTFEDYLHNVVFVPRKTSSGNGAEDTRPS
compound,measurement,setting,value
"C[Se]C[C@H]1O[C@@H](n2cnc3c(N)ncnc32)C(OC(C)=O)C1OC(C)=O (stereo partly drawn) [Compound #43, Adenosine, 5′-Se-methyl-5′-selino-, 2′,3′-diacetate]",pInsrβ at Y1146,Insrβ/Pdk1/Akt/AS160; [4],significant increase of pInsrβ at Y1146
same,phosphorylated Akt protein levels,Insrβ/Pdk1/Akt/AS160; [4],did not cause a significant increase of phosphorylated Akt protein levels
same,phosphorylated Akt protein levels,Insrβ/Pdk1/Akt/AS160; [5],robust increased of phosphorylated Akt proteins levels
same,pInsrβ levels,Insrβ/Pdk1/Akt/AS160,decrease in pInsrβ levels
same,phosphorylated AS160 and total AS160 protein levels,"Insrβ/Pdk1/Akt/AS160; 600 ppb alone, 5 minutes",did not affect the protein levels of phosphorylated AS160 and total AS160
same,increase in phosphorylated AS160 at S588,"Insrβ/Pdk1/Akt/AS160; 600 ppb, 60 minutes",about 6 fold
same,pInsrβ protein levels,"Insrβ/Pdk1/Akt/AS160; co-treatment insulin 200 nM and Compound #43 600 ppb, 5 minutes",tended to increase pInsrβ protein levels
same,phosphorylated AS160 protein levels,"Insrβ/Pdk1/Akt/AS160; co-treatment insulin and Compound #43, 5 and 60 minutes",significant increase of phosphorylated AS160 protein levels
same,pAkt protein levels,"Insrβ/Pdk1/Akt/AS160; co-treatment insulin and Compound #43, both tested time points",significant increase of pAkt protein levels
same,effect on G6PC expression,G6PC [1],significantly attenuated
same,reduction of 8-CPT/Dex-induced G6pc expression vs 8-CPT/Dex group,G6pc [2]; 150 and 300 ppb alone,~68%
same,effect on 8-CPT/Dex-induced G6pc expression,G6pc [2]; 150 or 300 ppb co-treated with 100 nM insulin,almost completely abolished 8-CPT/Dex-induced G6pc expression
same,G6pc mRNA level normalized by non-8-CPT/Dex-treated group,"G6pc [2]; 150 ppb, Column #5 FIG. 11",13
same,G6pc mRNA level normalized by non-8-CPT/Dex-treated group,"G6pc [2]; 300 ppb, Column #8 FIG. 11",13.5
same,phosphorylation of Insrβ at Y1146/1150/1151,"[3]; doses of 1.9 and 3.8, cell-free (FIG. 26)",significantly enhance the phosphorylation of Insrβ at Y1146/1150/1151
"insulin: insulin purchased from Sigma, positive control",pInsrβ at Y1146,Insrβ/Pdk1/Akt/AS160; [4],significant increase of pInsrβ at Y1146
same,phosphorylated Akt protein levels,Insrβ/Pdk1/Akt/AS160; [4],significant increase of phosphorylated Akt
same,phosphorylated Akt protein levels,Insrβ/Pdk1/Akt/AS160; [5],not observed
same,pInsrβ levels,Insrβ/Pdk1/Akt/AS160,decrease in pInsrβ levels
same,increase in phosphorylation of AS160 at S588,"Insrβ/Pdk1/Akt/AS160; 200 nM insulin, 5 min",about 2 fold
same,phosphorylated AS160,"Insrβ/Pdk1/Akt/AS160; 200 nM insulin, 60 minutes",no obvious increase in phosphorylated AS160
same,effect on G6PC expression,G6PC [1],significant decrease of G6PC expression
same,effect on 8-CPT/Dex-induced G6pc expression,"G6pc [2]; 10 nM and 100 nM insulin, 6 hr",significantly decreased 8-CPT/Dex-induced G6pc expression
same,phosphorylation of Insrβ at Y1146/1150/1151,"[3]; insulin 0.5 μM, cell-free (FIG. 26)",able to induce the phosphorylation of Insrβ at Y1146/1150/1151
